The series deals with uninfected Hep2 cells.

The values that follow come from patent publication US7030150B2, “Benzimidazole compounds and antiviral uses thereof” (Trimeris, Inc., priority 2001, dated 2006).

SMILES strings stand for the structures.

What is called CC50 is the concentration that lowers cell viability or growth by half. A lower CC50 goes with greater toxicity to the cells. `Fc1ccc(F)c(CNCc2nc3ccccc3n2Cc2nc3ccccc3[nH]2)c1` [compound 114] registered a CC50 of no less than 100 µM. Take `c1ccc2[nH]c(Cn3c(CNCc4ccc5c(c4)OCO5)nc4ccccc43)nc2c1` [compound 169]: the CC50 was no less than 100 µM.

`c1ccc2nc(Cn3c(CN4CCCCC4)nc4ccccc43)ccc2c1` [compound 50] gave a 50% cytotoxic concentration (CC50) of 50 µM. The result for `CN(Cc1ccco1)Cc1nc2ccccc2n1Cc1nc2ccccc2[nH]1` [compound 85] reads no less than 100 µM; that for `CCCN(Cc1nc2ccccc2n1Cc1cc(F)cc2c1OCOC2)CC1CC1` [compound 24], 82 µM; that for `CCCN(Cc1nc2ccccc2n1Cc1c2ccccc2nc2ccccc12)CC1CC1` [compound 23], no less than 101 µM. Regarding `FC(F)(F)Oc1ccc(CNCc2nc3ccccc3n2Cc2nc3ccccc3[nH]2)cc1` [compound 115], the 50% cytotoxic concentration (CC50) is no less than 100 µM. For `CN1CCN(CCCNCc2nc3ccccc3n2Cc2nc3ccccc3[nH]2)CC1` [compound 112], the CC50 is no less than 100 µM. `COc1ccc(CNCc2nc3ccccc3n2Cc2nc3ccccc3[nH]2)cc1` [compound 146] registered a CC50 of no less than 100 µM. The result for `O=C(OCc1ccccc1)N1CCCCN(Cc2nc3ccccc3n2Cc2nc3ccccc3[nH]2)CC1` [compound 232] reads no less than 100 µM. The molecule `CN(C)CCCNCc1nc2ccccc2n1Cc1nc2ccccc2[nH]1` [compound 174] came in with a half-maximal cytotoxic concentration (CC50) of no less than 100 µM. Regarding `c1ccc(CN2CCC(NCc3nc4ccccc4n3Cc3nc4ccccc4[nH]3)C2)cc1` (centres unmarked) [compound 149], the CC50 amounted to 39 µM.

Consider `c1ccc2[nH]c(Cn3c(CN4CCC5CCCCC5C4)nc4ccccc43)nc2c1` (centres unmarked) [compound 214], for which the CC50 is no less than 100 µM. The molecule `c1ccc2[nH]c(Cn3c(CNCC4CCCO4)nc4ccccc43)nc2c1` (centres unmarked) [compound 170] came in with a 50% cytotoxic concentration (CC50) of no less than 100 µM. The molecule `CCOCCCNCc1nc2ccccc2n1Cc1nc2ccccc2[nH]1` [compound 159] came in with a CC50 of no less than 100 µM. The molecule `CSc1ccc(Cn2c(CN3CCCCC3)nc3ccccc32)cc1` [compound 76] came in with a 50% cytotoxic concentration (CC50) of 11 µM.

Take `CC(C)N(Cc1nc2ccccc2n1Cc1cccc(Oc2ccccc2)c1)C1CCCCC1` [compound 12]: the CC50 was no less than 100 µM. The molecule `CC1CC(C)CN(Cc2nc3ccccc3n2Cc2nc3ccccc3[nH]2)C1` (centres unmarked) [compound 205] displayed a CC50 of no less than 100 µM. In turn, `Fc1ccc(CNCc2nc3ccccc3n2Cc2nc3ccccc3[nH]2)cc1` [compound 126] had a CC50 of no less than 100 µM. In turn, `c1ccc(CC2=NCCN2Cc2nc3ccccc3n2Cc2nc3ccccc3[nH]2)cc1` [compound 204] displayed a CC50 of no less than 100 µM. Consider `c1ccc(CCNCc2nc3ccccc3n2Cc2nc3ccccc3[nH]2)nc1` [compound 125], for which the CC50 was no less than 100 µM. As to `CCCN(Cc1nc2ccccc2n1Cc1ccc2ccccc2n1)CC1CC1` [compound 20], the CC50 amounted to 50 µM. The result for `c1ccc2[nH]c(Cn3c(CNC4CCCC4)nc4ccccc43)nc2c1` [compound 177] reads no less than 100 µM. `OCCC1CCCCN1Cc1nc2ccccc2n1Cc1nc2ccccc2[nH]1` (centres unmarked) [compound 213] came in with a CC50 of no less than 100 µM. The result for `FC(F)(F)Oc1ccccc1Cn1c(CN2CCCCC2)nc2ccccc21` [compound 75] reads 24 µM. The molecule `CCN(Cc1nc2ccccc2n1Cc1nc2ccccc2[nH]1)C(C)C` [compound 81] had a half-maximal cytotoxic concentration (CC50) of 63 µM. With `CN1CCC(N(C)Cc2nc3ccccc3n2Cc2nc3ccccc3[nH]2)CC1` [compound 80], the CC50 is 58 µM. The CC50 values of the last two molecules are within 1.5-fold of each other.

`FC(F)(F)c1ccc(CNCc2nc3ccccc3n2Cc2nc3ccccc3[nH]2)cc1` [compound 151] displayed a CC50 of no less than 100 µM. `O=C1c2ccccc2C(=O)N1Cc1nc2ccccc2n1Cc1nc2ccccc2[nH]1` [compound 226] displayed a CC50 of 50 µM. The result for `CC1CCCCN1CCCNCc1nc2ccccc2n1Cc1nc2ccccc2[nH]1` (centres unmarked) [compound 160] reads 88 µM. Molecule `c1ccc2[nH]c(Cn3c(CNC4CC5CCC4C5)nc4ccccc43)nc2c1` (centres unmarked) [compound 119] showed a CC50 of no less than 100 µM. For `Clc1ccc(CNCc2nc3ccccc3n2Cc2nc3ccccc3[nH]2)cc1Cl` [compound 171], half-maximal cytotoxicity (CC50) was put at 58 µM. With `c1coc(CNCc2nc3ccccc3n2Cc2nc3ccccc3[nH]2)c1` [compound 154] the figure was no less than 100 µM; with `CN(Cc1nc2ccccc2n1Cc1nc2ccccc2[nH]1)C(c1ccccc1)c1ccccc1` [compound 111], no less than 100 µM; with `CNCc1nc2ccccc2n1Cc1nc2ccccc2[nH]1` [compound 164], no less than 100 µM. As for `CN(Cc1nc2ccccc2n1Cc1nc2ccccc2[nH]1)CC(O)c1ccc(O)cc1` (centres unmarked) [compound 97], the CC50 worked out at 77 µM. In turn, `O=C1C(=O)N(Cc2nc3ccccc3n2Cc2nc3ccccc3[nH]2)c2ccc(Br)cc21` [compound 235] registered a half-maximal cytotoxic concentration (CC50) of no less than 100 µM.

For the molecule `N=C(N)NCc1nc2ccccc2n1Cc1nc2ccccc2[nH]1` [compound 104], the CC50 is no less than 100 µM.

In turn, `CN1CCCC1CCNCc1nc2ccccc2n1Cc1nc2ccccc2[nH]1` (centres unmarked) [compound 172] showed a CC50 of 95 µM.

For `c1ccc2[nH]c(Cn3c(CN4CCCCC4)nc4ccccc43)nc2c1` [compound 79], the CC50 is no less than 100 µM. Consider `c1ccc2c(NCc3nc4ccccc4n3Cc3nc4ccccc4[nH]3)cccc2c1` [compound 180], for which the CC50 was determined as 14 µM.

`FC(F)(F)c1cnc(N2CCCN(Cc3nc4ccccc4n3Cc3nc4ccccc4[nH]3)CC2)c(Cl)c1` [compound 215] had a CC50 of no less than 100 µM. The result for `c1ccc2[nH]c(Cn3c(CN4CCC(C5CCNCC5)CC4)nc4ccccc43)nc2c1` [compound 217] reads no less than 100 µM; that for `c1ccc2[nH]c(Cn3c(CNCCCn4ccnc4)nc4ccccc43)nc2c1` [compound 136], no less than 100 µM. For `Cc1nc(Cn2c(CN(C(C)C)C3CCCCC3)nc3ccccc32)cs1` [compound 2], the CC50 came to 50 µM. For `Clc1cccc(CNCc2nc3ccccc3n2Cc2nc3ccccc3[nH]2)c1` [compound 157], the CC50 is no less than 100 µM. `CCN1CCN(Cc2nc3ccccc3n2Cc2nc3ccccc3[nH]2)CC1` [compound 230] showed a CC50 of no less than 100 µM. `O=c1[nH]ccn1CCNCc1nc2ccccc2n1Cc1nc2ccccc2[nH]1` [compound 166] yielded a CC50 of no less than 100 µM.

`CCCCCCN(C)Cc1nc2ccccc2n1Cc1nc2ccccc2[nH]1` [compound 88] showed a half-maximal cytotoxic concentration (CC50) of no less than 100 µM.

Take `c1ccc2[nH]c(Cn3c(CN4CCC(N5CCCC5)CC4)nc4ccccc43)nc2c1` [compound 228]: it took 60 µM to reach half-maximal cytotoxicity (CC50). `C=CCN(C)Cc1nc2ccccc2n1Cc1nc2ccccc2[nH]1` [compound 83] yielded a 50% cytotoxic concentration (CC50) of 58 µM. As to `CC(C)N(Cc1nc2ccccc2n1Cc1c2ccccc2nc2ccccc12)C1CCCCC1` [compound 10], the half-maximal cytotoxic concentration (CC50) was no less than 100 µM. The molecule `COc1ccc(CCNCc2nc3ccccc3n2Cc2nc3ccccc3[nH]2)cc1` [compound 120] registered a CC50 of no less than 100 µM. `CCCCC(CO)NCc1nc2ccccc2n1Cc1nc2ccccc2[nH]1` (centres unmarked) [compound 176] yielded a CC50 of no less than 100 µM. The molecule `CCNCc1nc2ccccc2n1Cc1nc2ccccc2[nH]1` [compound 123] displayed a CC50 of no less than 100 µM. Molecule `Cc1nc(Cn2c(CN(Cc3ccccc3)C(C)C)nc3ccccc32)cs1` [compound 40] yielded a cytotoxic concentration (CC50) of 50 µM. The result for `Clc1ccc(CCNCc2nc3ccccc3n2Cc2nc3ccccc3[nH]2)cc1` [compound 163] reads 16 µM.

`Fc1cc2c(c(Cn3c(CN4CCCCC4)nc4ccccc43)c1)OCOC2` [compound 73] came in with a CC50 of 101 µM. This CC50 is about 6.3-fold higher than that of the molecule before.

`COc1ccc(N(C)Cc2nc3ccccc3n2Cc2nc3ccccc3[nH]2)cc1` [compound 110] gave a 50% cytotoxic concentration (CC50) of no less than 100 µM. With `C=C(C)CN(CC)Cc1nc2ccccc2n1Cc1nc2ccccc2[nH]1` [compound 89] the figure was no less than 100 µM. The result for `CCCCCCCCN(CCCCCCCC)Cc1nc2ccccc2n1Cc1nc2ccccc2[nH]1` [compound 106] reads 74 µM. Consider `CCCCN(CCCC)CCCNCc1nc2ccccc2n1Cc1nc2ccccc2[nH]1` [compound 100], for which the midpoint of cytotoxicity, the CC50, lay at 9.3 µM. `COC(=O)CN(C)Cc1nc2ccccc2n1Cc1nc2ccccc2[nH]1` [compound 95]: the CC50 was no less than 100 µM. In turn, `c1ccc2[nH]c(Cn3c(CN4CCSC4)nc4ccccc43)nc2c1` [compound 222] displayed a CC50 of no less than 100 µM. Regarding `OCCOCCN1CCN(Cc2nc3ccccc3n2Cc2nc3ccccc3[nH]2)CC1` [compound 216], it took 9 µM to reach half-maximal cytotoxicity (CC50). In the case of `COc1ccc(N2CCN(Cc3nc4ccccc4n3Cc3nc4ccccc4[nH]3)CC2)cc1` [compound 197], the CC50 is no less than 100 µM. The result for `Cc1ccc(N2CCN(Cc3nc4ccccc4n3Cc3nc4ccccc4[nH]3)CC2)c(C)c1` [compound 227] reads no less than 100 µM.

On to `Oc1ccc(N2CCN(Cc3nc4ccccc4n3Cc3nc4ccccc4[nH]3)CC2)cc1` [compound 220], for which the CC50 is no less than 100 µM. The molecule `c1ccc2[nH]c(Cn3c(CNCCCN4CCCC4)nc4ccccc43)nc2c1` [compound 147] registered a CC50 of no less than 100 µM. As for `COCCCNCc1nc2ccccc2n1Cc1nc2ccccc2[nH]1` [compound 116], the CC50 is no less than 100 µM. In turn, `c1ccc2c(Cn3c(CN4CCCCC4)nc4ccccc43)c3ccccc3nc2c1` [compound 72] gave a CC50 of no less than 100 µM. The result for `C#CCN(C)Cc1nc2ccccc2n1Cc1nc2ccccc2[nH]1` [compound 90] reads no less than 100 µM; that for `CCN(Cc1ccncc1)Cc1nc2ccccc2n1Cc1nc2ccccc2[nH]1` [compound 99], no less than 100 µM. In the case of `OCC1CCCN1Cc1nc2ccccc2n1Cc1nc2ccccc2[nH]1` (centres unmarked) [compound 209], the 50% cytotoxic concentration (CC50) is no less than 100 µM. The result for `c1ccc(CC(NCc2nc3ccccc3n2Cc2nc3ccccc3[nH]2)c2ccccc2)cc1` (centres unmarked) [compound 168] reads no less than 100 µM; that for `CCCN(Cc1nc2ccccc2n1Cc1csc(C)n1)CC1CC1` [compound 21], 50 µM; that for `O=C1C(=O)N(Cc2nc3ccccc3n2Cc2nc3ccccc3[nH]2)c2ccc(F)cc21` [compound 237], 65 µM. Take `Fc1ccc(CCNCc2nc3ccccc3n2Cc2nc3ccccc3[nH]2)cc1` [compound 167]: the CC50 is no less than 100 µM. The molecule `OCC1CCCCN1Cc1nc2ccccc2n1Cc1nc2ccccc2[nH]1` (centres unmarked) [compound 210] yielded a CC50 of 8 µM. That is a single-digit micromolar value. Consider `C#CCCN(C)Cc1nc2ccccc2n1Cc1nc2ccccc2[nH]1` [compound 94], for which the CC50 is 16 µM. Against the preceding molecule, the CC50 is about 2-fold higher.
